According to patent US9302012B2, “Anti-bacterial siderophore-aminopenicillin conjugates” (University of Notre Dame Du Lac, priority 2012, dated 2016):
≈ marks a conversion by molar mass, not a printed value. Like-named read-outs stand apart in the source and are kept apart here.

Experiments:
P. aeruginosa KW799/61 [1] = assay: microbe, parasite or virus in culture; format: cell-based, Pseudomonas aeruginosa; conditions: for Diameter of growth inhibition zones: P. aeruginosa KW799/61
Protocol: All aqueous solutions and media were prepared using distilled, deionized, and filtered water (Millipore Milli-Q Advantage A10 Water Purification System). Luria broth (LB) was purchased from VWR. Mueller-Hinton No. 2 broth (MHII broth; cation adjusted) was purchased from Sigma-Aldrich (St. Louis, Mo.). Iron-deficient (—Fe) MHII broth was prepared by adding 0.8 mL of a 1 mg/mL sterile aq. solution of 2,2′-bipyridine to 49.2 mL of MHII broth. Iron-rich (+Fe) MHII broth was prepared by adding 0.8 mL of a 1 mg/mL sterile aq. solution of FeCl3 to 49.2 mL of MHII broth. Mueller-Hinton No. 2 agar (MHII agar; HiMedia Laboratories) was purchased from VWR. Iron-deficient (−Fe) MHII agar was prepared by adding 0.5 mL of a 1 mg/mL sterile aq. solution of 2,2′-bipyridine to 34 mL of melted MHII agar with gentle mixing. Iron-rich (+Fe) MHII agar was prepared by adding 0.5 mL of a 1 mg/mL sterile aq. solution of FeCl3 to 34 mL of melted MHII agar with gentle mixing.
Antibacterial Susceptibility Testing by the Agar Diffusion Assay.
Antibacterial activity of the compounds was determined by a modified Kirby-Bauer agar diffusion assay. Overnight cultures of test organisms were grown in LB broth for 18-24 h and standard suspensions of […] were prepared in saline solution (0.9% NaCl) according to a 0.5 BaSO4 McFarland Standard. This standardized suspension (0.1 mL) was added to 34 mL of sterile, melted agar (−Fe or +Fe) tempered to 47-50° C. […] Wells of 9.0 mm diameter were cut from the petri dish agar and filled with exactly 50 μL of the test sample solution. The petri dish was incubated at 37° C. for 18-24 h and the inhibition zone diameters were measured (mm) with an electronic caliper after 24 h.

E. coli ATCC 25922 = assay: MIC90 by broth microdilution assay; format: cell-based, Escherichia coli; conditions: for MIC90: Escherichia coli, ATCC25922, 20 h, E. coli ATCC 25922, 37° C., 20 h
Protocol: (§1) ^aMIC90 values (μM) were determined using the broth microdilution method in Mueller-Hinton broth No. 2 (MHII) with visual end point analysis according to the CLSI guidelines (Methods for Dilution Antimicrobial Susceptibility Tests for Bacteria that Grow Aerobically, 8th ed. (Villanova, Pa., USA), Clinical and Laboratory Standards Institute (CLSI), 2009, approved standard document M07-A7). ^bEach compound was tested in triplicate.
(§2) All liquids and media were sterilized by autoclaving (121° C., 15 min) before use. All aqueous solutions and media were prepared using distilled, deionized, and filtered water (Millipore Milli-Q Advantage A10 Water Purification System). Luria broth (LB) was purchased from VWR. Mueller-Hinton No. 2 broth (MHII broth; cation adjusted) was purchased from Sigma-Aldrich (St. Louis, Mo.). Iron-deficient (—Fe) MHII broth was prepared by adding 0.8 mL of a 1 mg/mL sterile aq. solution of 2,2′-bipyridine to 49.2 mL of MHII broth. Iron-rich (+Fe) MHII broth was prepared by adding 0.8 mL of a 1 mg/mL sterile aq. solution of FeCl3 to 49.2 mL of MHII broth. Mueller-Hinton No. 2 agar (MHII agar; HiMedia Laboratories) was purchased from VWR. Iron-deficient (−Fe) MHII agar was prepared by adding 0.5 mL of a 1 mg/mL sterile aq. solution of 2,2′-bipyridine to 34 mL of melted MHII agar with gentle mixing. Iron-rich (+Fe) MHII agar was prepared by adding 0.5 mL of a 1 mg/mL sterile aq. solution of FeCl3 to 34 mL of melted MHII agar with gentle mixing. See also Wencewicz, T. A. Dissertation, University of Notre Dame, Notre Dame, Ind., 2011, for relevant techniques.
(§3) Determination of MIC90 Values by the Broth Microdilution Assay.
(§4) Antibacterial activity of the compounds was determined by measuring their minimum inhibitory concentrations (MIC90's) using the broth microdilution method according to the Clinical and Laboratory Standards Institute (CLSI, formerly the NCCLS) guidelines. Each well of a 96-well microtiter plate was filled with 50 μL of sterile broth media (−Fe or +Fe). Each test compound was dissolved in DMSO making a 20 mM solution, and then diluted with sterile broth media (−Fe or +Fe) to 400 or 800 μM. Exactly 50 μL of the compound solution was added to the first well of the microtiter plate and 2-fold serial dilutions were made down each row of the plate. Exactly 50 μL of bacterial inoculum (5×10^5 CFU/mL in broth media) was then added to each well giving a total volume of 100 μL/well. The plate was incubated at 37° C. for 20 h and then each well was examined for bacterial growth. The MIC90 was recorded as the lowest compound concentration (μM) required to inhibit 90% of bacterial growth as judged by turbidity of the culture media relative to a row of wells filled with a DMSO standard.

[2] = system: K. pneumoniae ATCC 8303 X68; assay: MIC90 by broth microdilution assay; format: cell-based; conditions: Klebsiella pneumoniae; for MIC90: ATCC8303, 20 h, K. pneumoniae ATCC 8303 X68, 37° C., 20 h; for MIC: ATCC8303, stated as inactive, read-out: MIC against K. pneumoniae
Protocol: as §1, §2, §3, §4

P. aeruginosa KW799/61 [3] = assay: MIC90 by broth microdilution assay; format: cell-based; conditions: Pseudomonas aeruginosa, KW799/61, 20 h
Protocol: as §1, §2, §3, §4

P. aeruginosa KW799/wt = assay: MIC90 by broth microdilution assay; format: cell-based; conditions: Pseudomonas aeruginosa, 20 h, 37° C.
Protocol: as §1, §2, §3, §4

P. aeruginosa PAO1 = assay: MIC90 by broth microdilution assay; format: cell-based; conditions: Pseudomonas aeruginosa, PAO1, 20 h, 37° C.
Protocol: as §1, §2, §3, §4

P. aeruginosa Pa4 = assay: MIC90 by broth microdilution assay; format: cell-based; conditions: Pseudomonas aeruginosa, PA4, 20 h, 37° C.
Protocol: as §1, §2, §3, §4

[4] = Pseudomonas aeruginosa, KW799/61, 24 h, read-out: Diameter of growth inhibition zones, P. aeruginosa KW799/61, −Fe agar, 50 μL of 0.2 mM solution, 37° C., 24 hours
[5] = −Fe (iron-deficient) MHII broth
[6] = read-out: MIC (MIC90), P. aeruginosa KW799/61, +Fe (iron-rich) MHII broth, 37° C.
[7] = read-out: MIC (MIC90), P. aeruginosa KW799/61, −Fe (iron-deficient) MHII broth, 37° C.
[8] = Pseudomonas aeruginosa, KW799/61, 24 h, read-out: Diameter of growth inhibition zones, P. aeruginosa KW799/61, +Fe agar, 50 μL of 0.2 mM solution, 37° C., 24 hours

Row | SMILES | zone of inhibition at 200 µM (P. aeruginosa KW799/61 [1]; [4]) [mm] | MIC90 (E. coli ATCC 25922; +Fe (iron-rich) MHII broth) [µM] | MIC90 (E. coli ATCC 25922; [5]) [µM] | MIC90 ([2]; +Fe (iron-rich) MHII broth) [µM] | MIC90 [2, 5] [µM] | MIC [2] [µM] | MIC90 (P. aeruginosa KW799/61 [3]; [6]) [µM] | MIC90 (P. aeruginosa KW799/61 [3]; [7]) [µM] | MIC90 (P. aeruginosa KW799/wt; +Fe (iron-rich) MHII broth) [µM] | MIC90 (P. aeruginosa KW799/wt; [5]) [µM] | MIC90 (P. aeruginosa PAO1; +Fe (iron-rich) MHII broth) [µM] | MIC90 (P. aeruginosa PAO1; [5]) [µM] | MIC90 (P. aeruginosa Pa4; +Fe (iron-rich) MHII broth) [µM] | MIC90 (P. aeruginosa Pa4; [5]) [µM] | zone of inhibition at 200 µM (P. aeruginosa KW799/61 [1]; [8]) [mm] | further results
1 | CC(=O)Oc1cccc(C(=O)NCCCC(CCCNC(=O)c2cccc(OC(C)=O)c2OC(C)=O)(CCCNC(=O)c2cccc(OC(C)=O)c2OC(C)=O)NC(=O)CCC(=O)NC(C(=O)NC2C(=O)N3C2SC(C)(C)C3C(=O)O)c2ccc(O)cc2)c1OC(C)=O (stereo not shown) [Compound 11] | 26 | 100 (≈ 131 µg/mL) | 6.25 (≈ 8.19 µg/mL) | > 200 | > 100 | > 100 | 12.5 (≈ 16.4 µg/mL) | 0.083 (≈ 0.109 µg/mL) | 25 (≈ 32.8 µg/mL) | 0.05 (≈ 0.0655 µg/mL) | 50 (≈ 65.5 µg/mL) | 0.39 (≈ 0.511 µg/mL) | 25 (≈ 32.8 µg/mL) | 0.21 (≈ 0.275 µg/mL) | – | Diameter of growth inhibition zones (P. aeruginosa KW799/61 [1]; +Fe agar, 50 μL of 0.2 mM solution, 37° C., 24 hours): 13P; potency against E. coli relative to amoxicillin (in words) (E. coli ATCC 25922; MIC compared with parent drug): almost as equipotent as amoxicillin
2 | CC(=O)Oc1cccc(C(=O)NCCCC(CCCNC(=O)c2cccc(OC(C)=O)c2OC(C)=O)(CCCNC(=O)c2cccc(OC(C)=O)c2OC(C)=O)NC(=O)CCC(=O)NC(C(=O)NC2C(=O)N3C2SC(C)(C)C3C(=O)O)c2ccccc2)c1OC(C)=O (stereo not shown) [Compound 10] | – | 150 (≈ 194 µg/mL) | 1.56 (≈ 2.02 µg/mL) | > 200 | > 100 | > 100 | 12.5 (≈ 16.2 µg/mL) | 0.067 (≈ 0.0867 µg/mL) | 33 (≈ 42.7 µg/mL) | 0.05 (≈ 0.0647 µg/mL) | 50 (≈ 64.7 µg/mL) | 0.39 (≈ 0.505 µg/mL) | 25 (≈ 32.4 µg/mL) | 0.39 (≈ 0.505 µg/mL) | – | Diameter of growth inhibition zones (P. aeruginosa KW799/61 [1]; +Fe agar, 50 μL of 0.1 mM solution, 37° C., 24 hours): 13P; zone of inhibition at 100 µM (P. aeruginosa KW799/61 [1]; Pseudomonas aeruginosa, KW799/61, 24 h, read-out: Diameter of growth inhibition zones, P. aeruginosa KW799/61, −Fe agar, 50 μL of 0.1 mM solution, 37° C., 24 hours): 21 mm; increase in activity against E. coli relative to ampicillin (E. coli ATCC 25922; MIC compared with parent drug): 8 fold
3 | CC1(C)S[C@@H]2[C@H](NC(=O)[C@H](N)c3ccc(O)cc3)C(=O)N2[C@H]1C(=O)O [Amoxicillin, reference compound] | 39 | 4.17 (≈ 1.52 µg/mL) | 4.17 (≈ 1.52 µg/mL) | 100 (≈ 36.5 µg/mL) | > 100 | – | 0.46 (≈ 0.168 µg/mL) | 0.39 (≈ 0.143 µg/mL) | > 200 | > 200 | > 200 | > 100 | > 200 | > 100 | 42 | activity against permeable mutant (large zones of inhibition, in words) (P. aeruginosa KW799/61 [1]; P. aeruginosa permeable mutant K799/61): highly active
4 | CC1(C)S[C@@H]2[C@H](NC(=O)[C@H](N)c3ccccc3)C(=O)N2[C@H]1C(=O)O [Ampicillin, reference compound] | 40 | 16.7 (≈ 5.84 µg/mL) | 12.5 (≈ 4.37 µg/mL) | > 200 | > 100 | – | 0.52 (≈ 0.182 µg/mL) | 0.78 (≈ 0.273 µg/mL) | > 200 | > 200 | > 200 | > 100 | > 200 | > 100 | 40 | –
